Seven molecules from patent US11976083B2, “Inhibitors of peptidylarginine deiminases” (Gilead Sciences, Inc., priority 2020, dated 2024) can be followed below.

The target in this experiment is T1, human PAD4 (Homo sapiens, UniProt Q9UM07).
T1 construct: human PAD4 (NM_012387), A2-P663, was PCR amplified; His-SUMO (N, cleaved yes); made in house; host or cells: E. coli BL21(DE3)
Description: In vitro PAD4 BAEE biochemical assay. The settings on record: BAEE substrate 3 mM, 5 nM PAD4, 2 mM calcium chloride; geometric mean of multiple experiments. In short, it runs like this:
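Assay was run at 25 °C using 3 mM BAEE and 5 nM human PAD4 after a 30 min compound preincubation; ammonia produced over 2 h was quantified by OPA-derived fluorescence. Full inhibition was defined by 50 µM BB-Cl-Amidine, and IC50 came from variable-slope nonlinear regression.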

As usually defined, the IC50 is the concentration needed to halve the response being measured.

T1 sequence (Q9UM07 2-663): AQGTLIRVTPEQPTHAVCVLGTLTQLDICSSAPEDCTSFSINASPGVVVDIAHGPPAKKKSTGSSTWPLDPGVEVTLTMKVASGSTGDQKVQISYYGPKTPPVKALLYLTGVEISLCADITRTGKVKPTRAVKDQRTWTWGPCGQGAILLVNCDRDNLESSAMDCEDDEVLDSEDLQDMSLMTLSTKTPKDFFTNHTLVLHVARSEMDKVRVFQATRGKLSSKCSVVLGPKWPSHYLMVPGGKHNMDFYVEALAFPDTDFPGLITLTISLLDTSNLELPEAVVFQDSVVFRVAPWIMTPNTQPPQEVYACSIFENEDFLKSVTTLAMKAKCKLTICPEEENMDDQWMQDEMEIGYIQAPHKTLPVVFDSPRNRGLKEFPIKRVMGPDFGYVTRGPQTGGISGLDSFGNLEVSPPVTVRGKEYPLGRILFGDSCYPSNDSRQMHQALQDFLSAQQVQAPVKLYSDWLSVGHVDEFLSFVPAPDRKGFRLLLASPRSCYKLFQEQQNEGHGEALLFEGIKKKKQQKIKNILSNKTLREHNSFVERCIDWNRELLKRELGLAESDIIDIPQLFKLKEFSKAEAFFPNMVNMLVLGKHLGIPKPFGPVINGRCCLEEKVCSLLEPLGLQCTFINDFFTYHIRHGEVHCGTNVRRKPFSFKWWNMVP

For the molecule `C[C@H]1NC(=O)c2ccccc2CC[C@H]2C[C@@H]2Cn2c(-c3nc4cc(C(=O)N[C@H]5CNCC[C@@H]5F)c(F)cc4n3C)cc3ccc1nc32` [Example 351, 6-fluoro-~{N}-[(3~{S},4~{S})-4-fluoro-3-piperidyl]-1-methyl-2-[(3~{S},5~{S),16~{R})-16-methyl-14-oxo-1,15,24-triazapentacyclo[15.5.2.0^{3,5}.0^{8,13}.0^ {20,23}]tetracosa-8,10,12,17(24),18,20(23),21-heptaen-22-yl]benzimidazole-5-carboxamide], the IC50 was 97 nM. Regarding `COc1cc(C(=O)N2[C@H]3CC[C@@H]2[C@H](N)C3)cc2nc(-c3cc4ccc5nc4n3CCC3(CCOCC(=O)N[C@@H]5C)CC3)c(C)n12` [Example 330, (11~{R})-17-[7-[(1~{R},2~{R},4~{S})-2-amino-7-azabicyclo[2.2.1]heptane-7-carbonyl]-5-methoxy-3-methyl-imidazo[1,2-a]pyridin-2-yl]-11-methyl-spiro[7-oxa-1,10,19-triazatricyclo[10.5.2.0^{15,18}]nonadeca-12(19),13,15(18),16-tetraene-4,1′-cyclopropane]-9-one], the IC50 came to 80 nM.

On to `C[C@H]1NC(=O)C(C)(C)CCCCCCn2c(-c3nc4cc(C(=O)N[C@H]5CNCC[C@@H]5F)c(F)cc4n3C)cc3ccc1nc32` [Example 591, 6-fluoro-~{N}-[(3~{S},4~ {S})-4-fluoro-3-piperidyl]-1-methyl-2-[(11~ {R})-8,8,11-trimethyl-9-oxo-1,10,19-triazatricyclo [10.5.2.0^{15,18}]nonadeca-12,14,16,18-tetraen-17-yl]benzimidazole-5-carboxamide], for which the IC50 came to 81 nM. The figure for `COc1cc(C(=O)N2[C@H]3CC[C@@H]2[C@H](N)C3)cc2nc(-c3cc4ccc5cc4n3CCCCCCC(C)(C)C(=O)Nc3ncccc3-5)n(C)c12` [Example 99, 18-[5-[(1~{R},2~{R},4~{S})-2-amino-7-azabicyclo[2.2.1]heptane-7-carbonyl]-7-methoxy-1-methyl-benzimidazol-2-yl]-10,10-dimethyl-6,8,17-triazatetracyclo[15.5.2.0^{2,7}.0^{20,24}] tetracosa-1(23),2(7),3,5,18,20(24),21-heptaen-9-one] is 111 nM; for `C[C@H]1NC(=O)[C@@H]2C[C@H]2CCCCCn2c(-c3nc4cc(C(=O)N[C@H]5CNCC[C@@H]5F)c(F)cc4n3CCO)cc3ccc1nc32` [Example 601, 6-fluoro-~{N}-[(3~{S},4~ {S})-4-fluoro-3-piperidyl]-1-(2-hydroxyethyl)-2-[(2~{R},5~{R},7~{R})-2-methyl-4-oxo-3,13,19-triazatetracyclo[11.5.2.0^ {5,7}.0^{16,20}]icosa-1(19),14,16(20),17-tetraen-14-yl]benzimidazole-5-carboxamide] it is 45 nM. On to `COc1cc(C(=O)N2CC[C@@H](OC(F)F)[C@@H](N)C2)cc2nc(-c3cc4ccc5nc4n3CCCCCC[C@@H](OC)C(=O)N[C@@H]5C)n(C)c12` [Example 629, (8~{R},11~{R})-17-[5-[(3~ {S},4~{R})-3-amino-4-(difluoromethoxy)piperidine-1-carbonyl]-7-methoxy-1-methyl-benzimidazol-2-yl]-8-methoxy-11-methyl-1,10,19-triazatricyclo [10.5.2.0^{15,18}]nonadeca-12(19),13,15(18),16-tetraen-9-one], for which the concentration for half-maximal inhibition (IC50) is 108 nM. The figure for `COc1cc(C(=O)N2C[C@H](N)[C@@H]3CC[C@H]2C3)cc2nc(-c3cc4ccc5nc4n3CCCCCc3c(ccc(F)c3F)C(=O)N[C@@H]5C)n(C)c12` [Example 906, (2~{R})-17-[5-[(1~{S},4~{R}, 5~{R})-4-amino-2-azabicyclo [3.2.1]octane-2-carbonyl]-7-methoxy-1-methyl-benzimidazol-2-yl]-8,9-difluoro-2-methyl-3,16,22-triazatetracyclo [14.5.2.0^{5,10).0^{19,23}] tricosa-1(22),5(10),6,8,17, 19(23),20-heptaen-4-one] is 55 nM.
